Consider seven molecules from patent publication US4962111A (priority 1989, dated 1990).

In data set [1] the test system is Mycobacterium tuberculosis. Description: microbe, parasite or virus in culture. In kind it is cell-based. Particulars: 99% (2 log) inhibition.
The next data set relates to Mycobacterium kansasii. Put plainly: microbe, parasite or virus in culture. It counts as cell-based. To be noted: 99% (2 log) inhibition.
For data set [2], the system named is BCG (Bacillus Calmette-Guerin, an attenuated Mycobacterium bovis). Description: microbe, parasite or virus in culture. In kind it is cell-based. Particulars: Mycobacterium tuberculosis variant bovis BCG, pH 5.8, pH 5.8.
Data set [3] deals with Mycobacterium tuberculosis H37RV. Particulars: cited from earlier work.
For a further data set, the system named is other mycobacteria. To be noted: background statement; cited from earlier work.
A further data set deals with M. bovis. Particulars: cited from earlier work.
In data set [4] the test system is Mycobacterium tuberculosis. Particulars: background statement; cited from earlier work.
For data set [5] the following is noted: background statement; cited from earlier work.
A further data set relates to tuberculosis. To be noted: applied subcutaneously; cited from earlier work.
The mark [6] stands for this setting: Mycobacterium tuberculosis, pH 5.8, M. tb. BUR, read-out: MIC.
[7] abbreviates: Mycobacterium tuberculosis, pH 5.8, M. tb. CES, read-out: MIC.
Where [8] appears, read: Mycobacterium tuberculosis, pH 5.8, M. tb. DOL, read-out: MIC.
Setting [9] is: Mycobacterium tuberculosis, pH 5.8, M. tb. DOU, read-out: MIC.
[10] abbreviates: Mycobacterium tuberculosis, pH 5.8, M. tb. DUB, read-out: MIC.
The mark [11] stands for this setting: Mycobacterium tuberculosis, pH 5.8, M. tb. GLA, read-out: MIC.
The mark [12] stands for this setting: Mycobacterium tuberculosis, pH 5.8, M. tb. ING, read-out: MIC.
[13] abbreviates: Mycobacterium tuberculosis, pH 5.8, M. tb. LFL, read-out: MIC.
The mark [14] stands for this setting: Mycobacterium tuberculosis, pH 5.8, M. tb. MCQ, read-out: MIC.
[15] abbreviates: Mycobacterium tuberculosis, pH 5.8, M. tb. SMA, read-out: MIC.
The mark [16] stands for this setting: Mycobacterium tuberculosis, pH 5.8, M. tb. WOO, read-out: MIC.
[17] abbreviates: Mycobacterium tuberculosis, pH 5.8, M. tb. BAK, read-out: MIC.

Values after ≈ are worked out from the molar mass of the structure shown. Where two headings read alike, the source gives them in different places. Bounds are passed on as bounds.

In the case of `C=CCOC(=O)c1cnccn1` [Allyl Pyrazinoate], the MIC is 3.12 µg/mL (≈ 19 µM) in data set [1] (M. tb. BAK, pH 5.8); 6.25 µg/mL (≈ 38.1 µM) in data set [1] (setting [6]); not above 3.12 µg/mL in data set [1] (setting [7]); not above 3.12 µg/mL in [1] (setting [8]); 3.12 µg/mL (≈ 19 µM) in [1] (setting [9]); 6.25 µg/mL (≈ 38.1 µM) in data set [1] (setting [10]). Moreover, the MIC in data set [1] (setting [11]) is 6.25 µg/mL (≈ 38.1 µM); in data set [1] (setting [12]) it was 3.12 µg/mL (≈ 19 µM); in [1] (setting [13]), 3.12 µg/mL (≈ 19 µM); in data set [1] (setting [14]) it was not above 3.12 µg/mL; in data set [1] (setting [15]) it was 3.12 µg/mL (≈ 19 µM); in [1] (setting [16]) it was 6.25 µg/mL (≈ 38.1 µM). In addition, the MIC in the data set with Mycobacterium kansasii (pH 5.8, M. kans. SCH) stood at 6.25 µg/mL (≈ 38.1 µM); with Mycobacterium kansasii (pH 5.8, M. kans. SWK), 6.25 µg/mL (≈ 38.1 µM); in data set [2], 100 µg/mL (≈ 609 µM).
Regarding `CN(C)CCOC(=O)c1cnccn1` [N,N-dimethyl-2-aminoethyl pyrazinoate], the “in vitro activity against Mycobacterium tuberculosis H37RV” value in data set [3] is given as “active”.
With `CCCOC(=O)c1cnccn1` [n-Propyl Pyrazinoate], the MIC in [1] (setting [17]), in data set [1] (setting [6]), in [1] (setting [7]), in data set [1] (setting [8]), in [1] (setting [9]) and in data set [1] (setting [10]) was not above 3.12 µg/mL throughout. Besides, the MIC in data set [1] (setting [11]) was 6.25 µg/mL (≈ 37.6 µM); in [1] (setting [12]) it was not above 3.12 µg/mL; in [1] (setting [13]) it was 6.25 µg/mL (≈ 37.6 µM); in data set [1] (setting [14]) it was not above 3.12 µg/mL; in data set [1] (setting [15]), not above 3.12 µg/mL; in the data set with Mycobacterium kansasii (pH 5.8, M. kans. SCH), 12.5 µg/mL (≈ 75.2 µM). In addition, the MIC is 6.25 µg/mL (≈ 37.6 µM) with Mycobacterium kansasii (pH 5.8, M. kans. SWK) and more than 200 µg/mL in data set [2].
On to `Cc1ccc(OC(=O)c2cnccn2)cc1` [p-Tolyl Pyrazinoate], for which the MIC in [1] (M. tb. DOU, pH 5.8) is 25 µg/mL (≈ 117 µM); in [1] (setting [17]), 12.5 µg/mL (≈ 58.4 µM); in [1] (setting [6]), 12.5 µg/mL (≈ 58.4 µM); in data set [1] (setting [7]) it was 12.5 µg/mL (≈ 58.4 µM); in data set [1] (setting [8]) it was 6.25 µg/mL (≈ 29.2 µM); in [1] (setting [10]) it was 25 µg/mL (≈ 117 µM). The MIC in data set [1] (setting [11]) came out at 6.25 µg/mL (≈ 29.2 µM); in data set [1] (setting [12]), 25 µg/mL (≈ 117 µM); in [1] (setting [13]), 12.5 µg/mL (≈ 58.4 µM); in data set [1] (setting [14]) it was 6.25 µg/mL (≈ 29.2 µM); in data set [1] (setting [15]), 25 µg/mL (≈ 117 µM); in [1] (setting [16]) it was 25 µg/mL (≈ 117 µM). The MIC stood at 12.5 µg/mL (≈ 58.4 µM) with Mycobacterium kansasii (pH 5.8, M. kans. SCH); 12.5 µg/mL (≈ 58.4 µM) in the data set on Mycobacterium kansasii (pH 5.8, M. kans. SWK); 25 µg/mL (≈ 117 µM) in data set [2].
For the molecule `NC(=O)c1cnccn1` [pyrazinamide], in the data set with other mycobacteria, the “activity against other mycobacteria” value is “not active”. Further, the “activity against M. bovis” value in the data set on M. bovis is given as “not active”. Further, the “activity against M. tuberculosis” value in [4] is reported as “only active against Mycobacterium (M.) tuberculosis”. The MIC in [2] was more than 200 µg/mL. In [5], the hepatotoxicity entry was “hepatotoxicity”.
Regarding `O=C(OCC(F)(F)F)c1cnccn1` [β, β, β-Trifluoroethyl Pyrazinoate], the MIC in data set [1] (setting [17]) is 25 µg/mL (≈ 121 µM); in data set [1] (setting [6]) it was 25 µg/mL (≈ 121 µM); in [1] (setting [7]), 12.5 µg/mL (≈ 60.6 µM); in data set [1] (setting [8]), 25 µg/mL (≈ 121 µM); in data set [1] (setting [9]) it was 100 µg/mL (≈ 485 µM); in data set [1] (setting [10]), 25 µg/mL (≈ 121 µM). In addition, the MIC came to 12.5 µg/mL (≈ 60.6 µM) in data set [1] (setting [11]); 25 µg/mL (≈ 121 µM) in data set [1] (setting [12]); 50 µg/mL (≈ 243 µM) in [1] (setting [13]); 25 µg/mL (≈ 121 µM) in data set [1] (setting [14]); 25 µg/mL (≈ 121 µM) in data set [1] (setting [15]); 25 µg/mL (≈ 121 µM) in data set [1] (setting [16]). For the same molecule, the MIC in the data set with Mycobacterium kansasii (pH 5.8, M. kans. SCH) stood at 100 µg/mL (≈ 485 µM); against Mycobacterium kansasii (pH 5.8, M. kans. SWK), 200 µg/mL (≈ 970 µM); in data set [2], 200 µg/mL (≈ 970 µM).
With Isopropyl thiopyrazinoate, the “activity in a standardized mouse test” value in the data set with tuberculosis is given as “exhibited activity”.
